Test results published in US9029337B2, “Modulation of factor 7 expression” (Isis Pharmaceuticals, Inc., priority 2007, dated 2015).
Strand notation (5' to 3'): a small letter for the sugar, then the base; units joined by * are phosphorothioate-linked, units joined directly phosphodiester-linked; [ ] holds rarer units or linkages, { } end groups; capitals alone tell only the bases. e = 2'-O-(2-methoxyethyl) (MOE); [5mC] = 5-methylcytosine; d = 2'-deoxy (DNA)

tested on: human Factor 7 mRNA; test: Antisense inhibition of human Factor 7 with short (14-mer) oligonucleotides in HepB3 cells, electroporation 1,000 nM; format: cell-based; conditions: electroporation, 1,000 nM antisense oligonucleotide, approximately 24 hours, Factor 7 mRNA relative to untreated control cells
In short: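 14-mer 2-10-2 MOE gapmers (full phosphorothioate, 5-methyl-C) electroporated at 1,000 nM into HepB3 cells at 20,000 cells/well. After ~24 h, Factor 7 mRNA by real-time RT-PCR, normalized to RiboGreen total RNA. Reported as % inhibition relative to untreated cells.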

Substance	% Inhibition
435652 (antisense e[5mC]*eT*dG*dG*dT*d[5mC]*dA*dT*d[5mC]*d[5mC]*dT*dT*eG*eT) [compound 435652]	48%
435722 (antisense eT*eG*dG*dG*d[5mC]*dT*dT*dG*dG*d[5mC]*dT*dG*eA*eA) [compound 435722]	50%
435740 (antisense eT*e[5mC]*dA*dT*dT*dT*d[5mC]*dA*dG*dT*dG*dA*eT*eG) [compound 435740]	0%
435682 (antisense eG*eG*dA*dT*dG*dA*dT*dG*dA*d[5mC]*d[5mC]*dT*eG*e[5mC]) [compound 435682]	36%
435742 (antisense eA*eT*dG*dT*dG*dA*dG*dG*dG*dT*dT*d[5mC]*eA*eT) [compound 435742]	11%
435496 (antisense eG*eG*dA*dG*dA*d[5mC]*d[5mC]*d[5mC]*dT*dG*dG*dT*eG*eT) [compound 435496]	47%
435490 (antisense e[5mC]*e[5mC]*dT*dG*dG*dT*dG*dT*dA*d[5mC]*dA*d[5mC]*e[5mC]*e[5mC]) [compound 435490]	49%
435717 (antisense eT*eG*dA*dG*d[5mC]*dT*dT*dT*dT*dG*d[5mC]*dA*eG*e[5mC]) [compound 435717]	0%
435488 (antisense e[5mC]*eA*dG*dT*d[5mC]*d[5mC]*dT*dG*dG*dG*dT*d[5mC]*eA*eT) [compound 435488]	17%
435733 (antisense e[5mC]*eT*dG*dA*dA*dT*dT*dG*dT*d[5mC]*dT*dG*eA*eA) [compound 435733]	5%
435827 (antisense eT*e[5mC]*dA*dG*dA*dA*dA*dG*dA*dT*dG*d[5mC]*eA*eG) [compound 435827]	5%
435745 (antisense eG*eG*dG*dA*dG*d[5mC]*dT*dA*d[5mC]*dA*dG*d[5mC]*e[5mC]*eT) [compound 435745]	0%
435640 (antisense eT*eG*dT*dA*dA*dG*dA*dA*dA*dT*d[5mC]*d[5mC]*eA*eG) [compound 435640]	2%
435696 (antisense e[5mC]*eA*dG*dA*dA*d[5mC]*dA*dT*dG*dT*dA*d[5mC]*eT*e[5mC]) [compound 435696]	10%
435655 (antisense eA*e[5mC]*dA*dG*d[5mC]*d[5mC]*dG*d[5mC]*d[5mC]*dG*dT*dT*e[5mC]*eT) [compound 435655]	49%
435691 (antisense e[5mC]*eA*dG*d[5mC]*d[5mC]*dG*d[5mC]*dT*dG*dA*d[5mC]*d[5mC]*eA*eA) [compound 435691]	25%
435848 (antisense eT*eG*dG*d[5mC]*d[5mC]*dA*d[5mC]*dT*dG*d[5mC]*d[5mC]*dT*e[5mC]*eA) [compound 435848]	32%
435730 (antisense eT*eA*dA*dA*d[5mC]*dA*dA*d[5mC]*d[5mC]*dG*d[5mC]*d[5mC]*eT*eT) [compound 435730]	49%
435634 (antisense eT*eG*dA*dA*dA*dT*d[5mC]*dT*d[5mC]*dT*dG*d[5mC]*eA*eG) [compound 435634]	5%
435729 (antisense eA*e[5mC]*dA*dG*d[5mC]*dA*d[5mC]*dA*d[5mC]*dA*dT*dG*eG*eA) [compound 435729]	30%
435839 (antisense eG*eG*dT*d[5mC]*dA*dG*d[5mC]*dT*dG*dG*dT*d[5mC]*eT*eG) [compound 435839]	14%
435499 (antisense e[5mC]*eT*dG*dG*dG*dA*dG*dA*d[5mC]*d[5mC]*d[5mC]*dT*eG*eG) [compound 435499]	59%
435838 (antisense eT*e[5mC]*d[5mC]*dA*dT*dG*dG*dA*d[5mC]*dA*d[5mC]*dT*eA*eA) [compound 435838]	29%
435781 (antisense eA*e[5mC]*d[5mC]*dA*d[5mC]*dG*d[5mC]*dG*dG*dT*dG*dG*eT*eG) [compound 435781]	0%
435734 (antisense eA*eT*dG*d[5mC]*dT*dT*d[5mC]*dT*dG*dA*dA*dT*eT*eG) [compound 435734]	16%
435720 (antisense eA*eG*dG*d[5mC]*dT*d[5mC]*dA*dG*d[5mC]*dT*dG*dG*eG*e[5mC]) [compound 435720]	16%
435770 (antisense e[5mC]*eT*d[5mC]*dT*dG*dA*dG*dA*dG*dG*d[5mC]*d[5mC]*e[5mC]*e[5mC]) [compound 435770]	81%

Substance	% Inhibition
435503 (antisense eT*eG*dT*dA*d[5mC]*dT*dG*dG*dG*dA*dG*dA*e[5mC]*e[5mC]) [compound 435503]	17%
435735 (antisense eT*eG*dG*dT*dG*dA*dT*dG*d[5mC]*dT*dT*d[5mC]*eT*eG) [compound 435735]	81%
435754 (antisense eT*e[5mC]*dA*dG*d[5mC]*dA*dA*dG*dA*dG*dT*dG*e[5mC]*eA) [compound 435754]	16%
435681 (antisense eA*eT*dG*dA*d[5mC]*d[5mC]*dT*dG*d[5mC]*dG*d[5mC]*d[5mC]*eA*e[5mC]) [compound 435681]	40%
435815 (antisense e[5mC]*eT*d[5mC]*dT*dT*d[5mC]*d[5mC]*dG*dA*dG*d[5mC]*dA*eG*e[5mC]) [compound 435815]	59%
435661 (antisense eG*eG*dA*d[5mC]*dA*d[5mC]*d[5mC]*d[5mC]*d[5mC]*dG*dT*d[5mC]*eT*eG) [compound 435661]	18%
435777 (antisense e[5mC]*eT*dG*dA*dG*dG*dA*dT*dG*d[5mC]*dA*dG*eG*e[5mC]) [compound 435777]	53%
435659 (antisense eT*eA*d[5mC]*d[5mC]*d[5mC]*d[5mC]*dT*d[5mC]*dG*dT*dG*dG*e[5mC]*eA) [compound 435659]	18%
435667 (antisense eA*eA*dT*dT*d[5mC]*dG*dG*d[5mC]*d[5mC]*dT*dT*dG*eG*eG) [compound 435667]	16%
435653 (antisense eA*eT*d[5mC]*dA*dG*d[5mC]*dT*dG*dG*dT*d[5mC]*dA*eT*e[5mC]) [compound 435653]	32%
435832 (antisense eT*eG*d[5mC]*dT*d[5mC]*dA*dG*dA*d[5mC]*d[5mC]*dT*dG*eG*e[5mC]) [compound 435832]	70%
435808 (antisense e[5mC]*eT*d[5mC]*dT*dG*dG*dA*d[5mC]*dA*d[5mC]*d[5mC]*dG*eG*eG) [compound 435808]	66%
435697 (antisense eA*eG*dT*dA*dG*d[5mC]*d[5mC]*dG*dG*d[5mC]*dA*d[5mC]*eA*eG) [compound 435697]	53%
435738 (antisense e[5mC]*eA*dG*dA*dG*dG*dA*dT*dG*dA*dG*d[5mC]*eA*e[5mC]) [compound 435738]	16%
435692 (antisense e[5mC]*eG*dG*dT*d[5mC]*d[5mC]*dA*dG*d[5mC]*dA*dG*d[5mC]*eT*eG) [compound 435692]	32%
435660 (antisense e[5mC]*e[5mC]*dG*dT*d[5mC]*dT*dG*d[5mC]*d[5mC]*dA*dG*d[5mC]*eA*eG) [compound 435660]	58%
435747 (antisense eA*eT*dA*dT*d[5mC]*dA*dT*dT*dG*dA*d[5mC]*dA*eA*eG) [compound 435747]	0%
435737 (antisense eG*eT*dG*d[5mC]*dA*dG*d[5mC]*d[5mC]*d[5mC]*dG*dG*d[5mC]*eA*e[5mC]) [compound 435737]	70%
435726 (antisense eG*e[5mC]*dA*dA*dT*dG*dA*dA*dG*dG*d[5mC]*dA*eG*eA) [compound 435726]	26%
435826 (antisense eA*eA*dG*dT*dG*dG*d[5mC]*dT*dG*dG*d[5mC]*dT*eG*eA) [compound 435826]	27%
435790 (antisense eA*eT*dG*dA*d[5mC]*d[5mC]*dA*dT*d[5mC]*d[5mC]*dT*d[5mC]*eA*eA) [compound 435790]	1%
435749 (antisense e[5mC]*eA*dG*d[5mC]*d[5mC]*dA*dG*dG*dG*d[5mC]*d[5mC]*dT*eG*eG) [compound 435749]	29%
435758 (antisense e[5mC]*e[5mC]*d[5mC]*dT*dG*dA*dG*d[5mC]*dT*dG*dG*dG*e[5mC]*eA) [compound 435758]	4%
435501 (antisense eT*eA*d[5mC]*dT*dG*dG*dG*dA*dG*dA*d[5mC]*d[5mC]*e[5mC]*eT) [compound 435501]	51%
435639 (antisense eT*e[5mC]*d[5mC]*dA*dG*dA*dA*d[5mC]*dA*dG*d[5mC]*dT*eT*e[5mC]) [compound 435639]	31%
435773 (antisense e[5mC]*eA*dG*dG*dG*dA*dA*d[5mC]*dA*d[5mC]*d[5mC]*d[5mC]*eT*e[5mC]) [compound 435773]	57%
435843 (antisense eG*e[5mC]*dT*dG*dG*dA*dG*d[5mC]*dT*dG*dA*dG*e[5mC]*e[5mC]) [compound 435843]	0%
